Measured values from ChEMBL document CHEMBL2074301, “Effect of endotoxin on doxorubicin transport across blood-brain barrier and P-glycoprotein function in mice” (Eur J Pharmacol, 2002).

Molecular target: ATP-dependent translocase ABCB1 (Mus musculus, UniProt P21447)
Assay: TP_TRANSPORTER: Western in vivo, brain of ddY mouse
Assay type: functional, organism-based

ATP-dependent translocase ABCB1, sequence (P21447 whole entry): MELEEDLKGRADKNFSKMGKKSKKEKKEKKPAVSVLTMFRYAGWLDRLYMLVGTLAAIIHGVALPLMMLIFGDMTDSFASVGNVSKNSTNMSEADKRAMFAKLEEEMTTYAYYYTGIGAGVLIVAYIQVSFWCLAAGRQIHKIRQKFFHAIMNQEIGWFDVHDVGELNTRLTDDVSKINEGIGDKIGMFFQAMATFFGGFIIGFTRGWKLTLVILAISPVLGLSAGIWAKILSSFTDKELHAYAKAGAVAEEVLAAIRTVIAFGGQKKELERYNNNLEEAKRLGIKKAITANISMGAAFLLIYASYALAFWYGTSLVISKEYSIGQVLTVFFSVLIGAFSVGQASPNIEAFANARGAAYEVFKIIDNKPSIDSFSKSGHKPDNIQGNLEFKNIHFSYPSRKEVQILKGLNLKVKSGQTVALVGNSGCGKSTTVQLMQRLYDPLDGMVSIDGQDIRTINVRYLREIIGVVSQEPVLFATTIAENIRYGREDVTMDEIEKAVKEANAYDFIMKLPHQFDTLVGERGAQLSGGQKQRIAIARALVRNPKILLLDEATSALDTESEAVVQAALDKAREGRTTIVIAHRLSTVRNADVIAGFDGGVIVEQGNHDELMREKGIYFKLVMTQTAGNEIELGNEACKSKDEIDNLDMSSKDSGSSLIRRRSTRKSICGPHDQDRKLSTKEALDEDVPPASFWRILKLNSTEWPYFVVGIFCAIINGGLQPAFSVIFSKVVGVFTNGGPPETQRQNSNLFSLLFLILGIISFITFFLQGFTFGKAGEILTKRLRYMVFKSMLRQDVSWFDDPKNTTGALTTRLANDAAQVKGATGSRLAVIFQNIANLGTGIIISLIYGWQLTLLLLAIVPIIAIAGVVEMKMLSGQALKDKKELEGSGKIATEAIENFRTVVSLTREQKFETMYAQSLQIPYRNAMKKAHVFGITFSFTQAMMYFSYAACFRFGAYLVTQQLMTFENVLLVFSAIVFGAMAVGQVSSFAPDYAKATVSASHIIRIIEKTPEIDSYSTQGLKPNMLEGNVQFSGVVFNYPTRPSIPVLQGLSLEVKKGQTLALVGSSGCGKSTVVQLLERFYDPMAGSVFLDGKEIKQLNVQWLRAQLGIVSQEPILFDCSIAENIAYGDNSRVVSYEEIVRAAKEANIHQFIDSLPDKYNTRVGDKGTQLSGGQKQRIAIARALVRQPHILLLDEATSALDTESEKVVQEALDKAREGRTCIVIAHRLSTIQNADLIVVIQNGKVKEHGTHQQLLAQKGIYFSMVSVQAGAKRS

Activity: inducer [Decrease]
SMILES: CCCCCCCCCCCCCC(=O)OC(CCCCCCCCCCC)CC(=O)OC1C(NC(=O)CC(CCCCCCCCCCC)OC(=O)CCCCCCCCCCC)C(OC2CC(OC(=O)CC(O)CCCCCCCCCCC)C(NC(=O)CC(O)CCCCCCCCCCC)C(O)O2)OC(CO)C1OP(=O)(O)O (stereo unspecified)
